# Assay results reported in patent publication US12318361B2, “Methods for treating cardiovascular diseases” (Olatec Therapeutics LLC, priority 2017, dated 2025).
# Test system: male CD-1 mice, experimental AMI
# Assay: Experimental mouse AMI model (30 min ischemia, 24 h reperfusion), dose response and delayed dosing, Example 9
# Type: in vivo
# Conditions: for Infarct size, Change (%) relative to saline group / Infarct size, mean: 24 h; for AWDT, mean / AWST, mean / LVEDD, mean / LVEF, mean / LVESD, mean / LVFS, mean / PWDT, mean / PWST, mean: echo at 24 h
# Description: Objectives: To determine the efficacy of, (1) a single dose of OLT1177™ (6, 60 and 600 mg/kg) administered at the time of reperfusion (Part A) and, (2) a single dose of 60 mg/kg OLT1177™ administered 60, 120 or 180 minutes after reperfusion in an experimental mouse AMI model.
# Methodology: Male CD-1 mice underwent transient surgical ligation of the left coronary artery for 30 minutes followed by reperfusion for 24 hours. A single dose of OLT1177™ (6, 60, or 600 mg/kg) or matching vehicle was administered intraperitoneally (IP) at time of reperfusion (N=5-9/group, Study Part A) or OLT1177™ (60 mg/kg) after a 60-, 120- or 180-minute delay (N=4-7/group, Study Part B). Echocardiography was performed to measure left ventricular (LV) fractional shortening (FS). Infarct size was measured at pathology by triphenyl-tetrazolium-chloride (TTC) and phthalo blue staining and expressed as a percentage of the myocardium at risk.
# For the 60-mg/kg dose, OLT1177™ (13 mg/vial) was diluted in 0.65 ml of 0.9% of normal saline solution to reach a concentration of 20 mg/ml. For the 6 mg/kg dose, the 20 mg/ml dose was diluted 10 times (0.1 ml OLT1177™ […]+0.9 ml 0.9% normal saline) to reach a final concentration of 2 mg/ml. For the 600 mg/kg dose, each vial of OLT1177™ (13 mg/vial) was diluted with 0.1 ml of saline, to reach a final concentration of 130 mg/ml. The content of multiple vials was combined. Each respective tube was subjected to a vortex and heating at 37° C. until complete dissolution of the drug substance.
# Male mice were dosed with OLT1177™ by the intraperitoneal route at dose levels of 6, 60, or 600 mg/kg (each approximately 33 g mouse received 100 μl of the dosing solution; 150 μl for the higher dose) after the reperfusion was confirmed (Study Part A). In Part B, 60 mg/kg OLT1177™ was injected (100 μl of the dosing solution per mouse) with a delay of 60, 120 or 180 minutes from the time of reperfusion.
# Adult out-bred male CD1 mice (8-10 weeks of age) were supplied by Envigo (Indianapolis, IN). A single operator performed all surgeries. Experimental AMI was induced by transient coronary artery ligation for 30 minutes to induce ischemia of the anterior wall and the apex (visible as pallor) followed by reperfusion, and leading to an infarct involving approximately 15% of the left ventricle. Mice were deeply sedated with sodium pentobarbital (70 mg/kg), intubated using a 23 G catheter and placed in the right lateral decubitus. The mice were shaved and the skin was cleaned with povidone solution and isopropyl alcohol. The mice were then connected to a ventilator and a left thoracotomy was performed followed by pericardiectomy and ligation of the proximal left coronary artery. A 1-mm diameter polyethylene tube was inserted inside the ligature knot, secured and left in place to obstruct the coronary flow for 30 minutes. At the end of the ischemic time, the tube was removed and the coronary flow re-establishment was observed. At this time, OLT1177™ at a dose of 6, 60 or 600 mg/kg, or the normal saline (0.9% NaCl) used as vehicle (0.1 ml of total volume) was injected into the peritoneal cavity after the reperfusion was confirmed (Part A). After closure of the thoracic access, the mice were left to recover for 24 hours. Pain management was achieved using buprenorphine (Buprenorphine SR™ Lab, 0.5 mg/kg) injected subcutaneously. For Study Part B, groups of mice were injected with 60 mg/kg of OLT1177™ after 60, 120 or 180 minutes from the moment of reperfusion.
# Before sacrifice (24 hours after reperfusion), the mice underwent transthoracic echocardiography under mild anesthesia with sodium pentobarbital (50 mg/kg). Echocardiography was performed with the Vevo770 Imaging System (VisualSonics Inc, Toronto, Ontario, Canada) and a 30 MHz probe. The heart was visualized in B-mode from the parasternal short axis and apical views. The left ventricular (LV) end-diastolic diameter (LVEDD) and LV end-systolic diameters (LVESD) at M-Mode were measured. […]
# [1] = 6 mg/kg IP at time of reperfusion (Group 2)
# [2] = 60 mg/kg IP administered at 60 minutes (Group 5)
# [3] = 60 mg/kg IP administered at 120 minutes (Group 6)
# [4] = 60 mg/kg IP at time of reperfusion (Group 3)
# [5] = 60 mg/kg IP, Group 7 (N = 4), head prints Administered at 120 Minutes
# [6] = 60 mg/kg IP, treatment delay of 60 or 120 minutes, p<0.01
# [7] = 600 mg/kg IP at time of reperfusion (Group 4)
# [8] = all doses (6, 60, 600 mg/kg) at reperfusion, 24 h after reperfusion, p<0.05
smiles,measurement,setting,value
"CS(=O)(=O)CCC#N [OLT1177™, 3-methanesulfonyl-propionitrile]","Infarct size, Change (%) relative to saline group",[1],−36%
same,"AWDT, mean",[1],0.79 mm
same,"AWST, mean",[1],1.10 mm
same,"LVEDD, mean",[1],3.71 mm
same,"LVEF, mean",[1],61.4%
same,"LVESD, mean",[1],2.52 mm
same,"LVFS, mean",[1],32.2%
same,"PWDT, mean",[1],0.86 mm
same,"PWST, mean",[1],1.12 mm
same,"Infarct size, mean",6 mg/kg IP single dose at time of reperfusion (Group 2),9.9%
same,infarct size (in words),60 mg/kg IP administered 120 or 180 minutes after reperfusion,not significantly altered
same,"AWDT, mean",[2],0.85 mm
same,"AWST, mean",[2],1.18 mm
same,"LVEDD, mean",[2],4.00 mm
same,"LVEF, mean",[2],65.3%
same,"LVESD, mean",[2],2.59 mm
same,"LVFS, mean",[2],35.5%
same,"PWDT, mean",[2],0.89 mm
same,"PWST, mean",[2],1.33 mm
same,"Infarct size, mean",60 mg/kg IP administered at 60 minutes after reperfusion (Group 5),4.4%
same,"AWDT, mean",[3],0.83 mm
same,"AWST, mean",[3],1.20 mm
same,"LVEDD, mean",[3],4.07 mm
same,"LVEF, mean",[3],63.6%
same,"LVESD, mean",[3],2.68 mm
same,"LVFS, mean",[3],34.1%
same,"PWDT, mean",[3],0.87 mm
same,"PWST, mean",[3],1.26 mm
same,"Infarct size, mean",60 mg/kg IP administered at 120 minutes after reperfusion (Group 6),11.1%
same,"Infarct size, mean",60 mg/kg IP administered at 180 minutes after reperfusion (Group 7),15.4%
same,"reducing infarct size and preserving LV function, compared with treatment given with no delay",60 mg/kg IP after a 60 minutes delay after reperfusion,equally effective
same,"Infarct size, Change (%) relative to saline group",[4],−67%
same,"AWDT, mean",[4],0.82 mm
same,"AWST, mean",[4],1.25 mm
same,"LVEDD, mean",[4],4.25 mm
same,"LVEF, mean",[4],59.3%
same,"LVESD, mean",[4],2.93 mm
same,"LVFS, mean",[4],31.0%
same,"PWDT, mean",[4],0.86 mm
same,"PWST, mean",[4],1.24 mm
same,"Infarct size, mean",60 mg/kg IP single dose at time of reperfusion (Group 3),5.1%
same,"AWDT, mean",[5],0.95 mm
same,"AWST, mean",[5],1.22 mm
same,"LVEDD, mean",[5],3.88 mm
same,"LVEF, mean",[5],51.5%
same,"LVESD, mean",[5],2.87 mm
same,"LVFS, mean",[5],26.0%
same,"PWDT, mean",[5],0.94 mm
same,"PWST, mean",[5],1.31 mm
same,LV ejection fraction in comparison to vehicle-treated mice (in words),[6],significantly improved
same,LV fractional shortening in comparison to vehicle-treated mice (in words),[6],significantly improved
same,drop in fractional shortening (in words),"60 mg/kg IP, treatment delay of 180 minutes",failed to prevent the drop
same,"Infarct size, Change (%) relative to saline group",[7],−61%
same,"AWDT, mean",[7],0.77 mm
same,"AWST, mean",[7],1.06 mm
same,"LVEDD, mean",[7],3.76 mm
same,"LVEF, mean",[7],61.6%
same,"LVESD, mean",[7],2.54 mm
same,"LVFS, mean",[7],33.0%
same,"PWDT, mean",[7],0.83 mm
same,"PWST, mean",[7],1.14 mm
same,"Infarct size, mean",600 mg/kg IP single dose at time of reperfusion (Group 4),6.0%
same,infarct size vs vehicle (in words),"6, 60 and 600 mg/kg single IP injection at time of reperfusion, p<0.001",significant reduction
same,LV ejection fraction relative to vehicle control (in words),[8],significantly higher
same,LV fractional shortening relative to vehicle control (in words),[8],significantly higher
same,decrease in mean infarct size compared to the vehicle control,high dose 600 mg/kg IP at time of reperfusion,more than 60%
same,decrease in infarct size compared to the vehicle control,low dose 6 mg/kg IP at time of reperfusion,36%
same,decrease in mean infarct size compared to the vehicle control,mid dose 60 mg/kg IP at time of reperfusion,more than 60%
